Reference: PMC10786919, “Design-rules for stapled peptides with in vivo activity and their application to Mdm2/X antagonists” (Nature Communications, 2024)
Like-named read-outs stand apart in the source and are kept apart here. Positions of bridges follow the written chain, without caps; N, C: chain ends. Non-standard residues stand in square brackets, D forms with d. Residues, ends and D or L forms follow the SMILES beside them. R8 = C=CCCCCCC[C@@](C)(N)C(=O)O; R5 = C=CCCC[C@@](C)(N)C(=O)O; S5 = C=CCCC[C@](C)(N)C(=O)O; Ahx = NCCCCCC(=O)O

Legend:
Assay type in all cases: cell-based
[1] = system: p53 responsive β-lactamase reporter in HCT116 cells; assay: cells; settings: 0% FBS 4Hr
Description: HCT116 cells were stably transfected with a p53 responsive β-lactamase reporter and expanded in McCoy’s 5 A Medium with 10% fetal bovine serum (FBS), Blasticidin, and Penicillin/Streptomycin and then transferred to 1.5 ml freezing vials and stored under liquid nitrogen in growth media containing 5% DMSO. […] The cells were then seeded into a 384-well plate at a density of 8000 cells per well. […] The final working concentration of DMSO was 0.5%. β-lactamase activity was detected using the ToxBLAzer Dual Screen (Invitrogen), as per the manufacturer’s instructions. Measurements were made using the Envision multiplate reader (Perkin–Elmer). […] Measurements were taken a minimum of three times (biological replicates) and values are reported as geometric means of the replicates.

[2] = Lactate dehydrogenase (LDH) release assay; settings: LDH: Cytotoxicity assay EC50
How it was run: (§1)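 A p53 β-lactamase reporter HCT116 line, 8000 cells per well, is exposed to test compounds at 0.5% final DMSO and scored for LDH leakage.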

[3] = system: HCT116 cells; assay: Lactate dehydrogenase (LDH) release assay
How it was run: as §1

[4] = read-out: p53 reporter assay EC50
[5] = read-out: p53 reporter assay: EC50

SMILES	EC50 [1, 5]	also measured
CC(=O)N1CCC[C@H]1C(=O)N[C@@H](CCCNC(=N)N)C(=O)N[C@@H](Cc1ccccc1)C(=O)N[C@]1(C)CCCCCCC=CCCC[C@@](C)(C(N)=O)NC(=O)[C@H](CC(C)C)NC(=O)[C@H](CCCNC(=N)N)NC(=O)[C@H](CC(C)C)NC(=O)[C@H](Cc2c[nH]c3ccccc23)NC(=O)[C@H](Cc2ccc(O)cc2)NC(=O)[C@H](CCC(=O)O)NC1=O [MP-031] (Ac-PRF[R8]EYWLRL[S5]-NH2; staple 4-11)	–	EC50 [1, 4]: 32.4 µM; EC50 [2]: > 50 µM; LDH: Cytotoxicity assay % Effect [3]: -3.388%
CC(=O)N[C@H](C(=O)N[C@@H](CO)C(=O)N[C@@H](Cc1ccccc1)C(=O)N[C@]1(C)CCCCCCC=CCCC[C@@](C)(C(N)=O)NC(=O)[C@H](CC(C)C)NC(=O)[C@H](CCCNC(=N)N)NC(=O)[C@H](Cc2ccc(O)cc2)NC(=O)[C@H](Cc2c[nH]c3ccccc23)NC(=O)[C@H](Cc2ccc(O)cc2)NC(=O)[C@H](CCC(=O)O)NC1=O)[C@@H](C)O [MP-033] (Ac-TSF[R8]EYWYRL[S5]-NH2; staple 4-11)	–	EC50 [1, 4]: 13.6 µM; EC50 [2]: > 50 µM; LDH: Cytotoxicity assay % Effect [3]: 1.548%
CC(=O)N[C@H](C(=O)N[C@@H](CO)C(=O)N[C@@H](Cc1ccccc1)C(=O)N[C@]1(C)CCCCCCC=CCCC[C@@](C)(C(N)=O)NC(=O)[C@H](CC(C)C)NC(=O)[C@H](CCCCN)NC(=O)[C@H](CC(C)C)NC(=O)[C@H](Cc2c[nH]c3ccccc23)NC(=O)[C@H](Cc2ccc(O)cc2)NC(=O)[C@H](CCC(=O)O)NC1=O)[C@@H](C)O [MP-034] (Ac-TSF[R8]EYWLKL[S5]-NH2; staple 4-11)	–	EC50 [1, 4]: 12.8 µM; EC50 [2]: > 50 µM; LDH: Cytotoxicity assay % Effect [3]: 3.672%
CC(=O)N[C@@H](CCCCN)C(=O)N[C@@H](CCCCN)C(=O)NCCCCCC(=O)N[C@H](C(=O)N[C@@H](CO)C(=O)N[C@@H](C)C(=O)N[C@]1(C)CCCCCCC=CCCC[C@@](C)(C(=O)N[C@@H](CCC(=O)O)C(=O)N[C@@H](CC(N)=O)C(=O)N[C@@H](Cc2ccccc2)C(N)=O)NC(=O)[C@H](CC(C)C)NC(=O)[C@H](CC(C)C)NC(=O)[C@H](C)NC(=O)[C@H](Cc2c[nH]c3ccccc23)NC(=O)[C@H](Cc2ccc(O)cc2)NC(=O)[C@H](CCC(=O)O)NC1=O)[C@@H](C)O [MP-069] (Ac-KK[Ahx]TSA[R8]EYWALL[S5]ENF-NH2; staple 7-14)	–	EC50 [1, 4]: > 50 µM
CC(=O)N[C@@H](CCCCN)C(=O)N[C@@H](CCCCN)C(=O)N[C@@H](CCCCN)C(=O)NCCCCCC(=O)N[C@H](C(=O)N[C@@H](CO)C(=O)N[C@@H](C)C(=O)N[C@]1(C)CCCCCCC=CCCC[C@@](C)(C(=O)N[C@@H](CCC(=O)O)C(=O)N[C@@H](CC(N)=O)C(=O)N[C@@H](Cc2ccccc2)C(N)=O)NC(=O)[C@H](CC(C)C)NC(=O)[C@H](CC(C)C)NC(=O)[C@H](C)NC(=O)[C@H](Cc2c[nH]c3ccccc23)NC(=O)[C@H](Cc2ccc(O)cc2)NC(=O)[C@H](CCC(=O)O)NC1=O)[C@@H](C)O [MP-070] (Ac-KKK[Ahx]TSA[R8]EYWALL[S5]ENF-NH2; staple 8-15)	–	EC50 [1, 4]: > 50 µM
CC(=O)N[C@@H](CCCCN)C(=O)N[C@@H](CCCCN)C(=O)N[C@@H](CCCCN)C(=O)NCCCCCC(=O)N[C@H](C(=O)N[C@@H](CO)C(=O)N[C@@H](CC(C)C)C(=O)N[C@]1(C)CCCCCCC=CCCC[C@@](C)(C(=O)N[C@@H](CCC(=O)O)C(=O)N[C@@H](CC(N)=O)C(=O)N[C@@H](Cc2ccccc2)C(N)=O)NC(=O)[C@H](Cc2c[nH]c3ccccc23)NC(=O)[C@H](CC(C)C)NC(=O)[C@H](C)NC(=O)[C@H](Cc2ccccc2)NC(=O)[C@H](Cc2ccc(O)cc2)NC(=O)[C@H](CCC(=O)O)NC1=O)[C@@H](C)O [MP-075] (Ac-KKK[Ahx]TSL[R8]EYFALW[S5]ENF-NH2; staple 8-15)	> 50 µM	–
CC(=O)N[C@H](C(=O)N[C@@H](CO)C(=O)N[C@@H](Cc1ccccc1)C(=O)N[C@]1(C)CCCC=CCCC[C@](C)(C(=O)N[C@@H](CC(C)C)C(=O)N[C@@H](CC(C)C)C(=O)N2CCC[C@H]2C(=O)N[C@@H](CCC(=O)O)C(=O)N[C@@H](CC(N)=O)C(=O)N[C@@H](Cc2ccccc2)C(N)=O)NC(=O)[C@H](Cc2c[nH]c3ccccc23)NC(=O)[C@H](Cc2ccc(O)cc2)NC(=O)[C@H](CCC(=O)O)NC1=O)[C@@H](C)O [MP-078] (Ac-TSF[R5]EYW[R5]LLPENF-NH2; staple 4-8)	37.7 µM	–
CC(=O)N[C@H](C(=O)N[C@@H](CO)C(=O)N[C@@H](Cc1ccccc1)C(=O)N[C@]1(C)CCCCCCC=CCCC[C@@](C)(C(=O)N[C@@H](CCC(=O)O)C(=O)N[C@@H](CC(N)=O)C(N)=O)NC(=O)[C@H](CC(C)C)NC(=O)[C@H](CC(C)C)NC(=O)[C@H](C)NC(=O)[C@H](Cc2c[nH]c3ccccc23)NC(=O)[C@H](Cc2ccc(O)cc2)NC(=O)[C@H](CCC(=O)O)NC1=O)[C@@H](C)O [MP-086]	17.4 µM	–
CC(=O)N[C@H](C(=O)N[C@@H](CO)C(=O)N[C@@H](Cc1ccccc1)C(=O)N[C@]1(C)CCCCCCC=CCCC[C@@](C)(C(=O)N[C@@H](CCC(=O)O)C(=O)N[C@@H](CC(N)=O)C(=O)N[C@@H](C)C(N)=O)NC(=O)[C@H](CC(C)C)NC(=O)[C@H](CC(C)C)NC(=O)[C@H](C)NC(=O)[C@H](Cc2c[nH]c3ccccc23)NC(=O)[C@H](Cc2ccc(O)cc2)NC(=O)[C@H](CCC(=O)O)NC1=O)[C@@H](C)O [MP-088]	22.3 µM	–
CC(=O)N[C@H](C(=O)N[C@@H](CO)C(=O)N[C@@H](Cc1ccccc1)C(=O)N[C@]1(C)CCCCCCCCCCC[C@@](C)(C(N)=O)NC(=O)[C@H](CC(C)C)NC(=O)[C@H](CC(C)C)NC(=O)[C@H](C)NC(=O)[C@H](Cc2c[nH]c3ccccc23)NC(=O)[C@H](Cc2ccc(O)cc2)NC(=O)[C@H](CCC(=O)O)NC1=O)[C@@H](C)O [MP-089]	1.23 µM	–
CC(=O)N[C@H](C(=O)N[C@@H](CO)C(=O)N[C@@H](Cc1ccccc1)C(=O)N[C@]1(C)CCCCCCC=CCCC[C@@](C)(C(=O)N[C@@H](CCC(=O)O)C(=O)N[C@@H](CC(N)=O)C(=O)N[C@H](Cc2ccccc2)C(N)=O)NC(=O)[C@H](CC(C)C)NC(=O)[C@H](CC(C)C)NC(=O)[C@H](C)NC(=O)[C@H](Cc2c[nH]c3ccccc23)NC(=O)[C@H](Cc2ccc(O)cc2)NC(=O)[C@H](CCC(=O)O)NC1=O)[C@@H](C)O [MP-091]	5.28 µM	–
CC(=O)N[C@H](C(=O)N[C@@H](CO)C(=O)N[C@@H](Cc1ccccc1)C(=O)N[C@]1(C)CCCCCCC=CCCC[C@@](C)(C(=O)N[C@H](CCC(=O)O)C(=O)N[C@@H](CC(N)=O)C(=O)N[C@@H](Cc2ccccc2)C(N)=O)NC(=O)[C@H](CC(C)C)NC(=O)[C@H](CC(C)C)NC(=O)[C@H](C)NC(=O)[C@H](Cc2c[nH]c3ccccc23)NC(=O)[C@H](Cc2ccc(O)cc2)NC(=O)[C@H](CCC(=O)O)NC1=O)[C@@H](C)O [MP-092]	6.33 µM	–
CC(=O)N[C@@H](CCCCN)C(=O)N[C@@H](CCCCN)C(=O)NCCCCCC(=O)N[C@H](C(=O)N[C@@H](CO)C(=O)N[C@@H](Cc1ccccc1)C(=O)N[C@]1(C)CCCCCC/C=C\CCC[C@@](C)(C(=O)N[C@@H](CCC(=O)O)C(=O)N[C@@H](CC(N)=O)C(=O)N[C@@H](Cc2ccccc2)C(N)=O)NC(=O)[C@H](CC(C)C)NC(=O)[C@H](CC(C)C)NC(=O)[C@H](C)NC(=O)[C@H](Cc2c[nH]c3ccccc23)NC(=O)[C@H](Cc2ccc(O)cc2)NC(=O)[C@H](CCC(=O)O)NC1=O)[C@@H](C)O [MP-095] (Ac-KK[Ahx]TSF[R8]EYWALL[S5]ENF-NH2; staple (Z) 7-14)	5.83 µM	–
CC(=O)N[C@H](C(=O)N[C@@H](CO)C(=O)N[C@@H](Cc1ccccc1)C(=O)N[C@]1(C)CCCC=CCCC[C@](C)(C(=O)N[C@@H](CC(C)C)C(=O)N[C@@H](CC(C)C)C(=O)N2CCC[C@H]2C(=O)N[C@@H](CCC(=O)O)C(=O)N[C@@H](CC(N)=O)C(=O)N[C@@H](Cc2ccc(O)cc2)C(N)=O)NC(=O)[C@H](Cc2c[nH]c3ccccc23)NC(=O)[C@H](Cc2ccc(O)cc2)NC(=O)[C@H](CCC(=O)O)NC1=O)[C@@H](C)O [MP-2082] (Ac-TSF[R5]EYW[R5]LLPENY-NH2; staple 4-8)	43 µM	–
CC(=O)N[C@H](C(=O)N[C@@H](CO)C(=O)N[C@@H](Cc1ccccc1)C(=O)N[C@]1(C)CCCC=CCCC[C@](C)(C(=O)N[C@@H](CC(C)C)C(=O)N[C@@H](CC(C)C)C(=O)N[C@@H](CO)C(=O)N[C@@H](CCC(=O)O)C(=O)N[C@@H](CC(N)=O)C(N)=O)NC(=O)[C@H](Cc2c[nH]c3ccccc23)NC(=O)[C@H](Cc2ccc(O)cc2)NC(=O)[C@H](CCC(=O)O)NC1=O)[C@@H](C)O [MP-2087] (Ac-TSF[R5]EYW[R5]LLSEN-NH2; staple 4-8)	24.7 µM	–
CC(=O)N[C@H](C(=O)N[C@@H](CO)C(=O)N[C@@H](Cc1ccccc1)C(=O)N[C@]1(C)CCCCCC/C=C\CCC[C@@](C)(C(N)=O)NC(=O)[C@H](CC(C)C)NC(=O)[C@H](CC(C)C)NC(=O)[C@H](C)NC(=O)[C@H](Cc2c[nH]c3ccccc23)NC(=O)[C@H](Cc2ccc(O)cc2)NC(=O)[C@H](CCC(=O)O)NC1=O)[C@@H](C)O [MP-2090]	5.78 µM	–
CC(=O)N[C@@H](CCCCN)C(=O)NCCCCCC(=O)N[C@H](C(=O)N[C@@H](CO)C(=O)N[C@@H](Cc1ccccc1)C(=O)N[C@]1(C)CCCCCC/C=C\CCC[C@@](C)(C(=O)N[C@@H](CCC(=O)O)C(=O)N[C@@H](CC(N)=O)C(=O)N[C@@H](Cc2ccccc2)C(N)=O)NC(=O)[C@H](CC(C)C)NC(=O)[C@H](CC(C)C)NC(=O)[C@H](C)NC(=O)[C@H](Cc2c[nH]c3ccccc23)NC(=O)[C@H](Cc2ccc(O)cc2)NC(=O)[C@H](CCC(=O)O)NC1=O)[C@@H](C)O [MP-2094]	6.49 µM	–
